Earlier results, collected in patent US5216013A, “Aralkyl-N-terminal cycloalkoxy-C terminal amino hydroxy β-amino acid derivatives” (G. D. Searle & Co., priority 1992, dated 1993).
Square brackets hold non-standard residues; d marks the D form. Peptide text beside a SMILES is read from it. * marks the point of attachment. Sta = CC(C)C[C@H](N)[C@@H](O)CC(=O)O; Isovaleryl = CC(C)CC(=O)*

Assays:
[1] = test system: pepsin
[2] = test system: renin
[3] = test system: hog renin; settings: after the injection of hog renin into nephrectomized rats
[4] = test system: cathepsin D

In the case of `CC(C)CC(=O)N[C@H](C(=O)N[C@H](C(=O)N[C@@H](CC(C)C)[C@@H](O)CC(=O)N[C@@H](C)C(=O)N[C@@H](CC(C)C)[C@@H](O)CC(=O)O)C(C)C)C(C)C` [pepstatin] (Isovaleryl-VV[Sta]A[Sta]-OH), the “inhibition of pepsin (in words)” value [1] is listed as “inhibitor”, the “inhibition of renin (in words)” value [2] is listed as “inhibitor” and the blood pressure [3] is listed as “reduce blood pressure in vivo”. The “inhibition of cathepsin D (in words)” value [4] was “inhibitor”.
